# Test results taken from patent US9677063B2, “Use of a cysteine protease of plasmodium vivax” (SAMSUNG ELECTRONICS CO., LTD., priority 2009, dated 2017).
# Square brackets hold non-standard residues; d marks the D form. Peptide text beside a SMILES is read from it. * marks the point of attachment. Sta = CC(C)C[C@H](N)[C@@H](O)CC(=O)O; AMC = Cc1cc(=O)oc2cc(N*)ccc12; Isovaleryl = CC(C)CC(=O)*; Cbz = O=C(OCc1ccccc1)*
# Columns and labels:
# rVX-4 [1] = conditions: E-64 1 μM, in presence of pepstatin A, pH 5.0-7.0, rVX-4 50 nM, 3 h at 37° C.
# Method: Recombinant PvPMs expressed in E. coli cells were purified by Ni-NTA chromatography (Qiagen) and refolded as described above. rVX-4 (50 nM) was incubated with PvPMs (20 μg each) in 100 mM sodium acetate (pH 5.0-5.5), 100 mM sodium phosphate (pH 6.0-6.5), or 100 mM Tris-HCl (pH 7.0-7.5) supplemented with 10 mM DTT for 3 h. The experiments were also performed in the presence of E-64 (1 μM) and/or pepstatin A (10 μM, Sigma-Aldrich).
# The inventors examined possible roles for VX-4 during maturation of recombinant PvPM4 (rPvPM4), which was expressed in E. coli as above, and the results are shown in FIG. 5(A). […] Recombinant PvPM 4 (20 μg) was incubated with rVX-4 (50 nM) supplemented with 10 mM DTT at different pH values with or without pepstatin A (PepA, 10 μM) or E-64 (1 μM) for 3 h at 37° C. The reactants were analyzed by 12% SDS-PAGE.
# rVX-4 [2] = conditions: rVX-4 1 μM, pH 5.5, 6.5, 7.5, 30 min room temperature, substrate Z-LR-MCA
# Method: The optimal pH was assessed in 100 mM sodium acetate (pH 4.5-5.5), 100 mM sodium phosphate (pH 6.0-6.5) and 100 mM Tris-HCl (pH 7.0-8.5). The enzymes (50 nM) were added to each buffer supplemented with 10 mM DTT and 5 μM Z-L-phenylalanyl-L-arginine 4-methyl-coumaryl-7-amide (Z-FR-MCA), Z-leucyl-L-arginine-MCA (Z-LR-MCA), or Z-L-arginyl-L-arginine 4-methyl-coumaryl-7-amide (Z-RR-MCA) (Peptide International). The appropriate buffers were separately employed as controls at each pH. Enzyme activity was measured as described above. The effects of reducing agents were examined under various concentrations of GSH, and pH stability was examined at pH 5.0 and 8.0 by incubating rVX-4 at 37° C. in the appropriate buffer.
# Residual activities (%) were determined using Z-LR-MCA as a substrate.
# rVX-4 [3] = conditions: fully processed 28 kDa rVX-4
# Method: The purified rVX-4 was refolded and activated, and aliquots collected every 30 min were analyzed by 12% SDS-PAGE with Coomassie staining (left). The proteolytic activity of fully processed rVX-4 was analyzed by a gelatin gel-zymogram (right).
# For activity gel electrophoresis, the obtained refolded rVX-4 was mixed with SDS-PAGE sample buffer lacking 2-mercaptoethanol and subjected to 12% SDS-PAGE co-polymerized with 0.1% gelatin. The gel was washed with 2% Triton X-100 (30 min), incubated overnight with 100 mM sodium acetate (pH 5.5) containing 10 mM DTT at 37° C. and stained with Coomassie Blue.
# VX-4 [4] = assay: Determination of pH optimum of enzyme activity against peptide substrates; format: biochemical, Plasmodium vivax; conditions: 5 μM substrate, 10 mM DTT, 37° C., pH 4.5-8.5
# Method: Enzyme activity was measured as described above.
# FIG. 3(C) relates to determination of pH optimum. […] Activity was measured at 37° C. each against Z-FR-MCA (▪), Z-LR-MCA (∘), and Z-RR-MCA (●). Maximal activity was presented as 100%. As shown in FIG. 3(C), the enzymatic activity was highest at pH 5.5. The pH-optimum was substantially different with a substrate containing a basic AA at P2 (Z-RR-MCA) with maximal activity at pH 6.5, and activity seen above pH 8.
# VX-4 [5] = assay: Substrate hydrolysis kinetics for vivapains (peptide-MCA substrates); format: biochemical, Plasmodium vivax
# Method: (§1) Cysteine protease activity was ascertained by the hydrolysis of benzyloxycarbonyl-L-leucyl-L-arginine 4-methyl-coumaryl-7-amide (Z-LR-MCA) (Peptide International, Louisville, Ky.). Enzyme (xVX, 30 μl; 200 nM) was added to 100 mM sodium acetate (220 μl, pH 5.5) containing 5 μM Z-LR-MCA and 10 mM DTT. The release of fluorescence was assessed at excitation and emission wavelengths of 355 nm and 460 nm with a SpectraMAX Gemini fluorometer (Molecular Devices, Sunnyvale, Calif.).
# (§2) The release of MCA was monitored over 10 min at room temperature as described above. Activities were compared as fluorescence over time. The kinetic constants Km and Vmax were determined using GraphPad software.
# [6] = tested on: P. vivax plasmepsin 4 (PvPM4); assay: Autocatalytic processing of recombinant PvPM4 (SDS-PAGE); format: biochemical, Plasmodium vivax; conditions: pepstatin A 10 μM, 3 h at 37° C.
# Method: The reactants were analyzed by 12% SDS-PAGE.
# VX-3 = assay: Substrate hydrolysis kinetics for vivapains (peptide-MCA substrates); format: biochemical, Plasmodium vivax; conditions: pH 5.5, 6.5, 7.5
# Method: as §1, with “Enzyme (xVX, 30 μl; 200 nM) was added to 100 mM sodium acetate (220 μl, pH 5.5) containing 5 μM Z-LR-MCA and 10 mM DTT.” left out
# as §2
# VX-2 = assay: as above; format: biochemical, Plasmodium vivax; conditions: pH 5.5, 6.5, 7.5
# Method: as §1, §2
# [7] = tested on: VX-4 mutants containing E180A; assay: Activity of mutant VX-4s against peptide substrates; format: biochemical, Plasmodium vivax; conditions: 100 mM Tris-HCl pH 7.5, 10 mM DTT, 37° C.
# Method: Site-directed mutagenesis was performed using a QuickChange II Site-Directed Mutagenesis Kit (Stratagene, Calif.). A pair of complementary primers with 39 bases was designed and a mutation to replace Ala90 to Ile (A90I), Gly154 to Ser (G154S) or Glu180 to Ala (E180A) was placed in the middle of the primers, as follows: […]
# Parental DNA inserted in pQE-30 (Qiagen, Calif.) as prepared in Example 2 was amplified using Pfu Ultra HF DNA polymerase with these primers for 16 cycles in a DNA thermal cycler (Perkin-Elmer). After digestion of the parental DNA with Dpn I, the amplified DNA with nucleotide substitution was incorporated and transformed into E. coli XL1-Blue (Stratagene). The mutations were verified by DNA sequencing. Double and triple point mutagenesis of A90I, G154S, and E180A were also done as described above. Each mutant plasmid was transformed into competent E. coli M15 (pREP4) cells (Qiagen). Each recombinant protein was individually expressed, purified and refolded as described above.
# In assays against peptide substrates, all of the mutants harboring A901 and G154S by single or multiple substitutions maintained the pH-dependent substrate specificity of wild-type VX-4. Conversely, those containing E180A lost activity against Z-RR-MCA at pH 7.5 (FIG. 4(C)). […]
# [8] = rVX-4, pH 7.5 compared with pH 5.5
compound,measurement,setting,value
"CC(C)C[C@H](NC(=O)[C@H]1O[C@@H]1C(=O)O)C(=O)NCCCCN=C(N)N (relative stereo) [E-64, trans-epoxysuccinyl-L-leuciloamido-(4-guanidino) butane]",effect on rVX-4 cleavage of rPvPM4,rVX-4 [1],specifically and significantly inhibited
same,E-64 concentration needed to inhibit rVX-4 depending on pH,rVX-4 [2],increased concentrations of E-64 to inhibit rVX-4 at higher pH
same,inhibition of protease activity in gelatin-gel electrophoresis,rVX-4 [3],completely inhibited
"Cc1cc(=O)oc2cc(NC(=O)[C@H](CCCNC(=N)N)NC(=O)[C@H](CC(C)C)NC(=O)OCc3ccccc3)ccc12 [Z-LR-MCA, benzyloxycarbonyl-L-leucyl-L-arginine 4-methyl-coumaryl-7-amide]",pH of maximal enzyme activity,VX-4 [4],5.5
same,decrease of kcat/Km at pH 7.5,VX-4 [5]; [8],5.6 fold
CC(C)CC(=O)N[C@H](C(=O)N[C@H](C(=O)N[C@@H](CC(C)C)[C@@H](O)CC(=O)N[C@@H](C)C(=O)N[C@@H](CC(C)C)[C@@H](O)CC(=O)O)C(C)C)C(C)C [pepstatin A] (Isovaleryl-VV[Sta]A[Sta]-OH),effect on autocatalytic processing of rPvPM4,[6],completely blocked
"Cc1cc(=O)oc2cc(NC(=O)[C@H](CCCNC(=N)N)NC(=O)[C@H](Cc3ccccc3)NC(=O)OCc3ccccc3)ccc12 [Z-FR-MCA, benzyloxycarbonyl-L-phenylalanyl-L-arginine 4-methyl-coumaryl-7-amide] (Cbz-Phe-Arg-{AMC})",pH of maximal enzyme activity,VX-4 [4],5.5
same,hydrolysis by rVX-3,VX-3,could not hydrolyze
same,hydrolysis by rVX-2,VX-2,could not hydrolyze
same,hydrolysis by rVX-4,VX-4 [5]; pH 7.5,not hydrolyzed
"Cc1cc(=O)oc2cc(NC(=O)[C@H](CCCNC(=N)N)NC(=O)[C@H](CCCNC(=N)N)NC(=O)OCc3ccccc3)ccc12 [Z-RR-MCA, benzyloxycarbonyl-L-arginyl-L-arginine 4-methyl-coumaryl-7-amide] (Cbz-Arg-Arg-{AMC})",activity of E180A-containing VX-4 mutants against substrate,[7],lost activity
same,pH of maximal enzyme activity,VX-4 [4],6.5
same,hydrolysis by rVX-3,VX-3,could not hydrolyze
same,hydrolysis by rVX-2,VX-2,could not hydrolyze
same,increase of kcat/Km at pH 7.5,VX-4 [5]; [8],2.6 fold
